Reference: ChEMBL document CHEMBL4354859, “Dimerization of α-Conotoxins as a Strategy to Enhance the Inhibition of the Human α7 and α9α10 Nicotinic Acetylcholine Receptors” (J Med Chem, 2020)
Calls of active or inactive are those of the source. The rule behind the calls is not given here. Numbered stars: 1 amine (or outer) side, 2 acyl side, 3 side chain; on linkers, the order of the positions; unused ones are H or OH. Bridge positions count the residues as written; N and C are the ends. Square brackets hold non-standard residues; d marks the D form. Peptide text beside a SMILES is read from it. I, II: the chains in the order shown. ξ: configuration not given here. X1 = O=C(CCOCCOCCOCCOCCOCCOCCOCCOCCOCCn1cc(CCCC(=O)[*:2])nn1)[*:1]; ξK = NCCCCC(N)C(=O)O

Columns and labels:
[1] = biological target: T1, Neuronal acetylcholine receptor; alpha9/alpha10 (Homo sapiens) (UniProt Q9UGM1+Q9GZZ6); test: Reversible inhibition of human alpha9alpha10 nAChR expressed in Xenopus laevis oocytes assessed as inhibition of ACh-evoked currents by two-electrode voltage clamp assay; type: cell-based
[2] = biological target: T2, Neuronal acetylcholine receptor; alpha9/alpha10 (Homo sapiens, UniProt Q9GZZ6+Q9UGM1); test: Inhibition of human alpha9alpha10 nAChR expressed in Xenopus laevis oocytes assessed as inhibition of ACh-evoked currents by two-electrode voltage clamp assay; type: cell-based
[3] = biological target: T3, Neuronal acetylcholine receptor subunit alpha-7 (Homo sapiens, UniProt P36544); test: Inhibition of human alpha7 nAChR expressed in Xenopus laevis oocytes assessed as inhibition of ACh-evoked currents by two-electrode voltage clamp assay; type: cell-based
[4] = biological target: T3, Neuronal acetylcholine receptor subunit alpha-7; test: Reversible inhibition of human alpha7 nAChR expressed in Xenopus laevis oocytes assessed as inhibition of ACh-evoked currents by two-electrode voltage clamp assay; type: cell-based
[5] = biological target: T4, Neuronal acetylcholine receptor; alpha3/beta2 (Homo sapiens) (UniProt P17787+P32297); test: Inhibition of human alpha3beta2 nAChR expressed in Xenopus laevis oocytes assessed as inhibition of ACh-evoked currents at 100 nM by two-electrode voltage clamp assay; type: cell-based
[6] = biological target: T1, Neuronal acetylcholine receptor; alpha9/alpha10 (Homo sapiens); test: Inhibition of human alpha9alpha10 nAChR expressed in Xenopus laevis oocytes assessed as inhibition of ACh-evoked currents at 1 uM by two-electrode voltage clamp assay; type: cell-based
[7] = biological target: T1, Neuronal acetylcholine receptor; alpha9/alpha10 (Homo sapiens); test: Inhibition of human alpha9alpha10 nAChR expressed in Xenopus laevis oocytes assessed as inhibition of ACh-evoked currents at 100 nM by two-electrode voltage clamp assay; type: cell-based
[8] = biological target: T5, Neuronal acetylcholine receptor; alpha3/beta4 (Homo sapiens) (UniProt P30926+P32297); test: Inhibition of human alpha3beta4 nAChR expressed in Xenopus laevis oocytes assessed as inhibition of ACh-evoked currents at 1 uM by two-electrode voltage clamp assay; type: cell-based
[9] = biological target: T6, Neuronal acetylcholine receptor; alpha4/beta2 (Homo sapiens) (UniProt P17787+P43681); test: Inhibition of human alpha4beta2 nAChR expressed in Xenopus laevis oocytes assessed as inhibition of ACh-evoked currents at 1 uM by two-electrode voltage clamp assay; type: cell-based
[10] = biological target: T5, Neuronal acetylcholine receptor; alpha3/beta4 (Homo sapiens); test: Inhibition of human alpha3beta4 nAChR expressed in Xenopus laevis oocytes assessed as inhibition of ACh-evoked currents at 100 nM by two-electrode voltage clamp assay; type: cell-based
[11] = biological target: T6, Neuronal acetylcholine receptor; alpha4/beta2 (Homo sapiens); test: Inhibition of human alpha4beta2 nAChR expressed in Xenopus laevis oocytes assessed as inhibition of ACh-evoked currents at 100 nM by two-electrode voltage clamp assay; type: cell-based
[12] = biological target: T2, Neuronal acetylcholine receptor; alpha9/alpha10; test: Inhibition of human alpha9alpha10 nAChR expressed in Xenopus laevis oocytes expressing alpha9:alpha10 mRNA injection ratio of 1:3 assessed as inhibition of ACh-evoked currents by two-electrode voltage clamp assay; type: cell-based
[13] = biological target: T4, Neuronal acetylcholine receptor; alpha3/beta2 (Homo sapiens); test: Inhibition of human alpha3beta2 nAChR expressed in Xenopus laevis oocytes assessed as inhibition of ACh-evoked currents at 1 uM by two-electrode voltage clamp assay relative to control; type: cell-based
[14] = biological target: Neuronal acetylcholine receptor subunit alpha-7 (Rattus norvegicus, UniProt Q05941); test: Inhibition of rat alpha7 nAChR
[15] = biological target: T3, Neuronal acetylcholine receptor subunit alpha-7; test: Inhibition of human alpha7 nAChR expressed in Xenopus laevis oocytes assessed as inhibition of ACh-evoked currents at 1 uM by two-electrode voltage clamp assay relative to control; type: cell-based

T3 sequence (P36544 whole entry): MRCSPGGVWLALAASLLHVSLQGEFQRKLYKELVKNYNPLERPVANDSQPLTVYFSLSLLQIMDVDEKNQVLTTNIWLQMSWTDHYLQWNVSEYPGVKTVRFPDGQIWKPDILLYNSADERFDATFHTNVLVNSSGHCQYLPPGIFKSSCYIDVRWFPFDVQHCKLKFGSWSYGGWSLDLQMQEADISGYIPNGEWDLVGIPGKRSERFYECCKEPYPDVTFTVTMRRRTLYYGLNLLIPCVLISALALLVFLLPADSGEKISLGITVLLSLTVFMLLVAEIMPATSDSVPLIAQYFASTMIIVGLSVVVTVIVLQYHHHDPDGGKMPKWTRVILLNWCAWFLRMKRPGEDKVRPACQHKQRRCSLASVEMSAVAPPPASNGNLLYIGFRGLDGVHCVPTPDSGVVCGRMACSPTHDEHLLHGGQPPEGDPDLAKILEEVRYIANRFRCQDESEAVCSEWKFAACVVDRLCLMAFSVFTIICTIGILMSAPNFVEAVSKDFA
T2 sequence (Q9UGM1 whole entry): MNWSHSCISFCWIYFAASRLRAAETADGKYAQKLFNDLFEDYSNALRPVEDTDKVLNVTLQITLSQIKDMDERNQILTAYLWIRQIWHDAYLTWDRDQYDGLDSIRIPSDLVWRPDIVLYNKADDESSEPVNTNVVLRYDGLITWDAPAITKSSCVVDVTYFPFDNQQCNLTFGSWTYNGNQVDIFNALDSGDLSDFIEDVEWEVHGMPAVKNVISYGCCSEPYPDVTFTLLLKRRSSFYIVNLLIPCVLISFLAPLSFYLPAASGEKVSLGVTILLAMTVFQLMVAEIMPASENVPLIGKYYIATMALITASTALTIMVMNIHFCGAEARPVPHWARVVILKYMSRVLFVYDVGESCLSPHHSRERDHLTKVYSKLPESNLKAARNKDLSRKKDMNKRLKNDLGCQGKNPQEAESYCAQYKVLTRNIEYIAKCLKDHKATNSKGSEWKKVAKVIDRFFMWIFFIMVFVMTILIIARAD
T2 sequence (Q9GZZ6 whole entry): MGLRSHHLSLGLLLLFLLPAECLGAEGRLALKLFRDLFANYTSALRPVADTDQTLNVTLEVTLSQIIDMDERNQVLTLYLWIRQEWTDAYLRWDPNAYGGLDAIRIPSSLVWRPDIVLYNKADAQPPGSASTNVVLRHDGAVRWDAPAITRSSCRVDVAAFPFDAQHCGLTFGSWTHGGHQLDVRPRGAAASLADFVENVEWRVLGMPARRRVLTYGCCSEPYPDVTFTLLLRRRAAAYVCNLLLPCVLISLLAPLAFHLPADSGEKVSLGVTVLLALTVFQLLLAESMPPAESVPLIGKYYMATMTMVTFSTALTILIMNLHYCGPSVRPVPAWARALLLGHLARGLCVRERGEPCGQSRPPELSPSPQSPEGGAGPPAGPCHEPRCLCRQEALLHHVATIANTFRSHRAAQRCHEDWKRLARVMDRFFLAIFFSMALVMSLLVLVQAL
Chain of Neuronal acetylcholine receptor subunit alpha-7 (Rattus norvegicus, UniProt Q05941) (Q05941 whole entry): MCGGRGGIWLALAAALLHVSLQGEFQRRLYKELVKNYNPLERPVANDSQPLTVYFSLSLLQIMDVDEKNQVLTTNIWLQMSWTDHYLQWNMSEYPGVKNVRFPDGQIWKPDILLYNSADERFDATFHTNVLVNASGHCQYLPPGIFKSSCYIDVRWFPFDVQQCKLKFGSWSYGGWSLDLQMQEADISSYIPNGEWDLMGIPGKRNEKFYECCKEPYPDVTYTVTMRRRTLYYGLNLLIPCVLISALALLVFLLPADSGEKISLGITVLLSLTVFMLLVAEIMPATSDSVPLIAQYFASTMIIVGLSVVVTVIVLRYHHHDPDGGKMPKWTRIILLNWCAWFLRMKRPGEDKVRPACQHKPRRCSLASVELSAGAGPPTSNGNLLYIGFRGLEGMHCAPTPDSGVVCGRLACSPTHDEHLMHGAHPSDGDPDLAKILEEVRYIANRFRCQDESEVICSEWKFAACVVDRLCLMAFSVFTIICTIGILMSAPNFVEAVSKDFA

In the case of CC(C)C[C@@H]1NC(=O)[C@H](CCC(=O)O)NC(=O)[C@@H]2CCCN2C(=O)[C@H](Cc2cnc[nH]2)NC(=O)[C@H](CC(N)=O)NC(=O)[C@H](C(C)C)NC(=O)[C@H](CO)NC(=O)[C@@H]2CSSC[C@H](NC(=O)CNC(=O)CCOCCOCCOCCOCCOCCOCCOCCOCCOCCn3cc(CCCC(=O)NCCCCC(NC(=O)CCCc4cn(CCOCCOCCOCCOCCOCCOCCOCCOCCOCCC(=O)NCC(=O)N[C@H]5CSSC[C@@H]6NC(=O)[C@H](C)NC(=O)[C@@H]7CCCN7C(=O)[C@H](Cc7cnc[nH]7)NC(=O)[C@H](CO)NC(=O)[C@H](CSSC[C@@H](C(N)=O)NC(=O)[C@H](CC(C)C)NC(=O)[C@H](CCC(=O)O)NC(=O)[C@@H]7CCCN7C(=O)[C@H](Cc7cnc[nH]7)NC(=O)[C@H](CC(N)=O)NC(=O)[C@H](C(C)C)NC(=O)[C@H](CO)NC6=O)NC5=O)nn4)C(=O)NCC(=O)N[C@@H](CCCNC(=N)N)C(=O)N[C@@H](CCCNC(=N)N)C(=O)N[C@@H](CCCNC(=N)N)C(=O)N[C@@H](CCCNC(=N)N)C(=O)NCC(N)=O)nn3)C(=O)N[C@@H](CSSC[C@@H](C(N)=O)NC1=O)C(=O)N[C@@H](CO)C(=O)N[C@@H](Cc1cnc[nH]1)C(=O)N1CCC[C@H]1C(=O)N[C@@H](C)C(=O)N2 (some centres undefined) (I: GCCSHPACSVNHPELC-NH2 / II: GCCSHPACSVNHPELC-NH2 / III: [ξK]GRRRRG-NH2; disulfide I:2-I:8, I:3-I:16, II:2-II:8, II:3-II:16; linker I:N-III:1, II:N-III:N via X1), the inhibition [1] is reported as “Dose-dependent effect”, the IC50 [2] is reported as 0.0019 µM and the IC50 [3] is reported as 0.354 µM. For the same compound, the inhibition [4] was “Dose-dependent effect”.

In the case of N=C(N)NCCC[C@H](NC(=O)CNC(=O)C(CCCCNC(=O)CCCc1cn(CCOCCOCCOCCOCCOCCOCCOCCOCCOCCC(=O)NCC(=O)N[C@H]2CSSC[C@@H]3NC(=O)[C@H](CCCNC(=N)N)NC(=O)[C@@H]4CCCN4C(=O)[C@H](CC(=O)O)NC(=O)[C@H](CO)NC(=O)[C@H](CSSC[C@@H](C(N)=O)NC(=O)[C@H](CCCNC(=N)N)NC(=O)[C@H](Cc4ccc(O)cc4)NC(=O)[C@H](CCCNC(=N)N)NC3=O)NC2=O)nn1)NC(=O)CCCc1cn(CCOCCOCCOCCOCCOCCOCCOCCOCCOCCC(=O)NCC(=O)N[C@H]2CSSC[C@@H]3NC(=O)[C@H](CCCNC(=N)N)NC(=O)[C@@H]4CCCN4C(=O)[C@H](CC(=O)O)NC(=O)[C@H](CO)NC(=O)[C@H](CSSC[C@@H](C(N)=O)NC(=O)[C@H](CCCNC(=N)N)NC(=O)[C@H](Cc4ccc(O)cc4)NC(=O)[C@H](CCCNC(=N)N)NC3=O)NC2=O)nn1)C(=O)N[C@@H](CCCNC(=N)N)C(=O)N[C@@H](CCCNC(=N)N)C(=O)N[C@@H](CCCNC(=N)N)C(=O)NCC(N)=O (some centres undefined) (I: GCCSDPRCRYRC-NH2 / II: GCCSDPRCRYRC-NH2 / III: [ξK]GRRRRG-NH2; disulfide I:2-I:8, I:3-I:12, II:2-II:8, II:3-II:12; linker I:N-III:1, II:N-III:N via X1), the inhibition [5] is reported as “Active”, the inhibition [6] is reported as “Active” and the inhibition [7] is reported as “Active”. The inhibition [1] was “Dose-dependent effect”, the IC50 [2] was 0.0385 µM and the inhibition [8] was “inactive”. The inhibition [9] was “inactive”, the inhibition [10] was “inactive” and the IC50 [3] was 0.0631 µM. The inhibition [4] was “Dose-dependent effect”, the inhibition [11] was “inactive” and the IC50 [12] was 0.117 µM. It also gave an inhibition [13] of 60%.

Work on CC[C@H](C)[C@@H]1NC(=O)[C@H](CCC(=O)O)NC(=O)[C@@H]2CCCN2C(=O)[C@H](Cc2cnc[nH]2)NC(=O)[C@H](CC(=O)O)NC(=O)[C@H](Cc2ccc(O)cc2)NC(=O)[C@H](CC(N)=O)NC(=O)[C@@H]2CSSC[C@H](NC(=O)CN)C(=O)N[C@@H](CSSC[C@@H](C(N)=O)NC1=O)C(=O)N[C@@H](CO)C(=O)N[C@@H](CC(=O)O)C(=O)N1CCC[C@H]1C(=O)N[C@@H](CCCNC(=N)N)C(=O)N2 yielded an IC50 [2] of 1 µM and an IC50 [3] greater than 10 µM.

In the case of CC[C@H](C)[C@@H]1NC(=O)[C@H](CCC(=O)O)NC(=O)[C@@H]2CCCN2C(=O)[C@H](Cc2cnc[nH]2)NC(=O)[C@H](CC(=O)O)NC(=O)[C@H](Cc2ccc(O)cc2)NC(=O)[C@H](CC(N)=O)NC(=O)[C@@H]2CSSC[C@H](NC(=O)CNC(=O)CCOCCOCCOCCOCCOCCOCCOCCOCCOCCn3cc(CCCC(=O)NCCCCC(NC(=O)CCCc4cn(CCOCCOCCOCCOCCOCCOCCOCCOCCOCCC(=O)NCC(=O)N[C@H]5CSSC[C@@H]6NC(=O)[C@H](CCCNC(=N)N)NC(=O)[C@@H]7CCCN7C(=O)[C@H](CC(=O)O)NC(=O)[C@H](CO)NC(=O)[C@H](CSSC[C@@H](C(N)=O)NC(=O)[C@H]([C@@H](C)CC)NC(=O)[C@H](CCC(=O)O)NC(=O)[C@@H]7CCCN7C(=O)[C@H](Cc7cnc[nH]7)NC(=O)[C@H](CC(=O)O)NC(=O)[C@H](Cc7ccc(O)cc7)NC(=O)[C@H](CC(N)=O)NC6=O)NC5=O)nn4)C(=O)NCC(=O)N[C@@H](CCCNC(=N)N)C(=O)N[C@@H](CCCNC(=N)N)C(=O)N[C@@H](CCCNC(=N)N)C(=O)N[C@@H](CCCNC(=N)N)C(=O)NCC(N)=O)nn3)C(=O)N[C@@H](CSSC[C@@H](C(N)=O)NC1=O)C(=O)N[C@@H](CO)C(=O)N[C@@H](CC(=O)O)C(=O)N1CCC[C@H]1C(=O)N[C@@H](CCCNC(=N)N)C(=O)N2 (some centres undefined), the inhibition [1] is reported as “Dose-dependent effect”, the IC50 [2] is reported as 0.266 µM and the IC50 [3] is reported as greater than 10 µM. The inhibition [4] was “Dose-dependent effect”.

N=C(N)NCCC[C@H](NC(=O)[C@@H]1CSSC[C@@H]2NC(=O)[C@@H](NC(=O)CN)CSSC[C@H](NC(=O)[C@H](CCCNC(=N)N)NC(=O)[C@@H]3CCCN3C(=O)[C@H](CC(=O)O)NC(=O)[C@H](CO)NC2=O)C(=O)N[C@@H](CCCNC(=N)N)C(=O)N[C@@H](Cc2ccc(O)cc2)C(=O)N[C@@H](CCCNC(=N)N)C(=O)N1)C(=O)O gave an IC50 [14] of 4.66 µM.

In the case of CC(C)C[C@@H]1NC(=O)[C@H](CCC(=O)O)NC(=O)[C@@H]2CCCN2C(=O)[C@H](Cc2cnc[nH]2)NC(=O)[C@H](CC(N)=O)NC(=O)[C@H](C(C)C)NC(=O)[C@H](CO)NC(=O)[C@@H]2CSSC[C@H](NC(=O)CN)C(=O)N[C@@H](CSSC[C@@H](C(N)=O)NC1=O)C(=O)N[C@@H](CO)C(=O)N[C@@H](Cc1cnc[nH]1)C(=O)N1CCC[C@H]1C(=O)N[C@@H](C)C(=O)N2 (H-GCCSHPACSVNHPELC-NH2; disulfide 2-8, 3-16), the IC50 [3] is reported as greater than 10 µM.

In the case of N=C(N)NCCC[C@@H]1NC(=O)[C@H](Cc2ccc(O)cc2)NC(=O)[C@H](CCCNC(=N)N)NC(=O)[C@@H]2CSSC[C@H](NC(=O)CN)C(=O)N[C@@H](CSSC[C@@H](C(N)=O)NC1=O)C(=O)N[C@@H](CO)C(=O)N[C@@H](CC(=O)O)C(=O)N1CCC[C@H]1C(=O)N[C@@H](CCCNC(=N)N)C(=O)N2 (H-GCCSDPRCRYRC-NH2; disulfide 2-8, 3-12), the IC50 [2] is reported as 0.249 µM, the IC50 [3] is reported as greater than 1 µM and the inhibition [15] is reported as 20%.

With C[C@@H]1NC(=O)[C@@H]2CSSC[C@H](NC(=O)CN)C(=O)N[C@@H](CSSC[C@@H](C(N)=O)NC(=O)[C@H](CCCNC(=N)N)NC(=O)[C@H](Cc3c[nH]c4ccccc34)NC1=O)C(=O)N[C@@H](CO)C(=O)N[C@@H](CC(=O)O)C(=O)N1CCC[C@H]1C(=O)N[C@@H](CCCNC(=N)N)C(=O)N2 the IC50 [3] was 1 µM.
